Test results from patent US8691804B2 (Evotec AG, priority 2008, dated 2014).

Biological target: T1, human H3 receptors (Homo sapiens, UniProt Q9Y5N1)
T1 construct: host or cells: CHO-K1
Assay: cAMP quantification assay for human H3 receptor testing
Assay type: cell-based
Conditions: CHO-K1 cells expressing human H3 receptors; inhibition of agonist-induced decrease of cAMP; 100 nM histamine, 10 μM forskolin; read-out: Potency range (IC50 values)
Procedure: CHO—K1 cell line expressing human H3 receptors were purchased from Euroscreen (Gosselies, Belgium, Cat. no.: ES-392-C)
Human H3 receptor-expressing cell-lines were grown in Ham's F12 [Sigma, Cat. no. N6658], supplemented with 10% FBS [Sigma, Cat. no. F9665], 400 μg/ml G418 [Sigma, Cat. no. N1876] and 250 μg/ml Zeocin [Invitrogen, Cat. no. 46-0509]) according to the protocol provided by Euroscreen.
The assay measures the ability of test compounds to inhibit Histamine receptor agonist-induced decrease of intracellular free cAMP (receptor is Gi coupled).
Specifically, a cAMP quantification assay system from DiscoveRx (cAMP XS+; Cat. no. 90-0075) was used.
For the cAMP assay, confluent cells were detached from the culture vessels with 1× trypsin-EDTA solution (Sigma), and seeded into 384-well Costar plates (white, clear bottom, Cat. no. 3707) at a density of 10,000 cells per well. Cells were seeded in a volume of 50 μl in medium without antibiotics and incubated overnight in a humidified atmosphere with 5% CO2 at 37° C. The cAMP assay was performed according to the protocol provided by DiscoveRx.
The cell culture medium was removed and the cells washed once with PBS (50 μl per well). The plates were emptied by inversion and 7.5 μl/well of compound in PBS (containing 1 mM IBMX and 0.03% BSA) were added and incubated for 30 min at 37° C.
Subsequent 7.5 μl/well specific agonist solution was added and the plates for another 30 min incubated at 37° C.
hH3:100 nM histamine, 10 μM forskolin in PBS (containing 1 mM IBMX and 0.03% BSA)
After the incubation with the agonist, 5 μl/well cAMP XS antibody solution was added followed by 20 μl/well Gal/EII/Lysis (1:5:19)+ED (1:1). The plates were incubated for one hour at room temperature and afterwards 20 μl/well EA reagent was added. The luminescence was developed for approximately three hours at room temperature and the plates were read out using a ‘BMG Novostar’ plate reader.
Test compounds were assayed at 8 concentrations in triplicate. Serial 10-fold dilutions in 100% DMSO were made at a 100-times higher concentration than the final concentration and then diluted with a 2 step protocol in assay buffer to reach the required assay concentrations and 1% DMSO. […]

T1 sequence (Q9Y5N1 whole entry): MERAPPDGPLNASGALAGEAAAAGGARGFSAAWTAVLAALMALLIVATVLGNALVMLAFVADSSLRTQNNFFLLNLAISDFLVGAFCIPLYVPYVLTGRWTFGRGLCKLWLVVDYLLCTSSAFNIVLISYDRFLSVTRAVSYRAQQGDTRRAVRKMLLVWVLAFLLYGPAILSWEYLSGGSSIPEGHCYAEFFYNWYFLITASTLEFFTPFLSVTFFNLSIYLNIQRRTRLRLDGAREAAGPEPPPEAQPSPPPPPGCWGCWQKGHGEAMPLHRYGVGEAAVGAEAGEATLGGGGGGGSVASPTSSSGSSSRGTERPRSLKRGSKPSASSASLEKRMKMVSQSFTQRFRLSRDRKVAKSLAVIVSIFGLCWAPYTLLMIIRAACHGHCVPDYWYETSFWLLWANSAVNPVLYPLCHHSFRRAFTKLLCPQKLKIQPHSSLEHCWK

IC50, < 100 nM:
O=C(N1CCN(C2CCC2)CC1)N1CC(Oc2ccccc2)C1 [Example 38, 1-cyclobutyl-4-[(3-phenoxyazetidin-1-yl)carbonyl]piperazine]
N#Cc1ccccc1OC1CN(C(=O)N2CCCN(C3CCC3)CC2)C1 [Example 31, 2-({1-[(4-cyclobutyl-1,4-diazepan-1-yl)carbonyl]azetidin-3-yl}oxy)benzonitrile]
COC1CN(C(=O)N2CCCN(C3CCC3)CC2)C1 [Example 96, 1-cyclobutyl-4-[(3-methoxyazetidin-1-yl)carbonyl]-1,4-diazepane]
CC(C)(O)c1ccc(OC2CN(C(=O)N3CCCN(C4CCC4)CC3)C2)cn1 [Example 118, 2-[5-({1-[(4-cyclobutyl-1,4-diazepan-1-yl)carbonyl]azetidin-3-yl}oxy)pyridin-2-yl]propan-2-ol]
NC1CN(C(=O)N2CCCN(C3CCC3)CC2)C1 [Example 109, 1-[(4-cyclobutyl-1,4-diazepan-1-yl)carbonyl]azetidin-3-amine]
O=C(N1CCN(C2CCC2)CC1)N1CC(Oc2ccc(F)cc2)C1 [Example 41, 1-cyclobutyl-4-{[3-(4-fluorophenoxy)azetidin-1-yl]carbonyl}piperazine]
O=C(N1CCCN(C2CCC2)CC1)N1CC(Oc2ccn3ccnc3c2)C1 [Example 71, 7-({1-[(4-cyclobutyl-1,4-diazepan-1-yl)carbonyl]azetidin-3-yl}oxy)imidazo[1,2-a]pyridine]
Cc1ccc(NC(=O)C2CN(C(=O)N3CCCN(C4CCC4)CC3)C2)cn1 [Example 132, 1-[(4-cyclobutyl-1,4-diazepan-1-yl)carbonyl]-N-(6-methylpyridin-3-yl)azetidine-3-carboxamide]
COc1ccccc1OC1CN(C(=O)N2CCCN(C3CCC3)CC2)C1 [Example 92, 1-cyclobutyl-4-{[3-(2-methoxyphenoxy)azetidin-1-yl]carbonyl}-1,4-diazepane]
CNC(=O)c1ccc(NC2CN(C(=O)N3CCCN(C4CCC4)CC3)C2)cn1 [Example 110, 5-({1-[(4-cyclobutyl-1,4-diazepan-1-yl)carbonyl]azetidin-3-yl}amino)-N-methylpyridine-2-carboxamide]
O=C(N1CCCN(C2CCC2)CC1)N1CC(Oc2ccc(Br)cn2)C1 [Example 22, 1-({3-[(5-bromopyridin-2-yl)oxy]azetidin-1-yl}carbonyl)-4-cyclobutyl-1,4-diazepane]
CNC(=O)c1ccc(OC2CN(C(=O)N3CCCN(C4CCC4)CC3)C2)cn1 [Example 5, 5-({1-[(4-cyclobutyl-1,4-diazepan-1-yl)carbonyl]azetidin-3-yl}oxy)-N-methylpyridine-2-carboxamide]
O=C(N1CCCN(C2CCC2)CC1)N1CC(Oc2cccc(C(F)(F)F)c2)C1 [Example 28, 1-cyclobutyl-4-({3-[3-(trifluoromethyl)phenoxy]azetidin-1-yl}carbonyl)-1,4-diazepane]
CC(C)c1cc(OC2CN(C(=O)N3CCCN(C4CCC4)CC3)C2)ccn1 [Example 55, 1-cyclobutyl-4-[(3-{[2-(1-methylethyl)pyridin-4-yl]oxy}azetidin-1-yl)carbonyl]-1,4-diazepane]
CNC(=O)c1ccc(OCC2CN(C(=O)N3CCCN(C4CCC4)CC3)C2)cn1 [Example 138, 5-({1-[(4-cyclobutyl-1,4-diazepan-1-yl)carbonyl]azetidin-3-yl}methoxy)-N-methylpyridine-2-carboxamide]
O=C(C1CN(C(=O)N2CCCN(C3CCC3)CC2)C1)N1CCC1 [Example 126, 1-{[3-(azetidin-1-ylcarbonyl)azetidin-1-yl]carbonyl}-4-cyclobutyl-1,4-diazepane]
O=C(NC1CN(C(=O)N2CCCN(C3CCC3)CC2)C1)c1ccc(Cl)cc1 [Example 140, 4-chloro-N-{1-[(4-cyclobutyl-1,4-diazepan-1-yl)carbonyl]azetidin-3-yl}benzamide]
CNC(=O)c1ccc(N(C)C2CN(C(=O)N3CCCN(C4CCC4)CC3)C2)cn1 [Example 111, 5-[{1-[(4-cyclobutyl-1,4-diazepan-1-yl)carbonyl]azetidin-3-yl}(methyl)amino]-N-methylpyridine-2-carboxamide]
C#CCOC1CN(C(=O)N2CCCN(C3CCC3)CC2)C1 [Example 99, 1-cyclobutyl-4-{[3-(prop-2-yn-1-yloxy)azetidin-1-yl]carbonyl}-1,4-diazepane]
CNC(=O)c1ccc(O[C@H]2C[C@@H](C(=O)N3CCCN(C4CCC4)CC3)C2)nc1 [Example 102, 6-({cis-3-[(4-cyclobutyl-1,4-diazepan-1-yl)carbonyl]cyclobutyl}oxy)-N-methylpyridine-3-carboxamide]
CNC(=O)c1ccc(OC2CN(C(=O)N3CCCN(C4CCC4)CC3)C2)c(F)c1 [Example 43, 4-({1-[(4-cyclobutyl-1,4-diazepan-1-yl)carbonyl]azetidin-3-yl}oxy)-3-fluoro-N-methylbenzamide]
O=C1NCCc2cc(OC3CN(C(=O)N4CCCN(C5CCC5)CC4)C3)ccc21 [Example 116, 6-({1-[(4-cyclobutyl-1,4-diazepan-1-yl)carbonyl]azetidin-3-yl}oxy)-3,4-dihydroisoquinolin-1(2H)-one]
O=C(N1CCCN(C2CCC2)CC1)N1CC(Oc2ncc(F)cn2)C1 [Example 160, 1-cyclobutyl-4-({3-[(5-fluoropyrimidin-2-yl)oxy]azetidin-1-yl}carbonyl)-1,4-diazepane]
O=C(C1CN(C(=O)N2CCCN(C3CCC3)CC2)C1)N1CCCCC1 [Example 124, 1-cyclobutyl-4-{[3-(piperidin-1-ylcarbonyl)azetidin-1-yl]carbonyl}-1,4-diazepane]
O=C(N1CCCN(C2CCC2)CC1)N1CC(Oc2ccc(OC(F)(F)F)cc2)C1 [Example 88, 1-cyclobutyl-4-({3-[4-(trifluoromethoxy)phenoxy]azetidin-1-yl}carbonyl)-1,4-diazepane]
COc1ccc(OC2CN(C(=O)N3CCCN(C4CCC4)CC3)C2)cc1 [Example 86, 1-cyclobutyl-4-{[3-(4-methoxyphenoxy)azetidin-1-yl]carbonyl}-1,4-diazepane]
CN(C(=O)C1CN(C(=O)N2CCCN(C3CCC3)CC2)C1)c1ccc(Cl)cc1 [Example 146, N-(4-chlorophenyl)-1-[(4-cyclobutyl-1,4-diazepan-1-yl)carbonyl]-N-methylazetidine-3-carboxamide]
O=C(N1CCCN(C2CCC2)CC1)N1CC(Oc2ccc(OC(F)F)cc2)C1 [Example 89, 1-cyclobutyl-4-({3-[4-(difluoromethoxy)phenoxy]azetidin-1-yl}carbonyl)-1,4-diazepane]
O=C(C1CN(C(=O)N2CCCN(C3CCC3)CC2)C1)N1CCC(F)CC1 [Example 129, 1-cyclobutyl-4-({3-[(4-fluoropiperidin-1-yl)carbonyl]azetidin-1-yl}carbonyl)-1,4-diazepane]
CNC(=O)c1ccc(OC2CN(C(=O)N3CCCN(C4CCCC4)CC3)C2)cn1 [Example 115, 5-({1-[(4-cyclopentyl-1,4-diazepan-1-yl)carbonyl]azetidin-3-yl}oxy)-N-methylpyridine-2-carboxamide]
Cc1nn(C)c(C)c1-c1ccc(OC2CN(C(=O)N3CCCN(C4CCC4)CC3)C2)cc1 [Example 150, 1-cyclobutyl-4-({3-[4-(1,3,5-trimethyl-1H-pyrazol-4-yl)phenoxy]azetidin-1-yl}carbonyl)-1,4-diazepane]
O=C(C1CC1)N1CCc2nc(OC3CN(C(=O)N4CCCN(C5CCC5)CC4)C3)ccc2C1 [Example 83, 2-({1-[(4-cyclobutyl-1,4-diazepan-1-yl)carbonyl]azetidin-3-yl}oxy)-6-(cyclopropylcarbonyl)-5,6,7,8-tetrahydro-1,6-naphthyridine]
O=C(N1CCCN(C2CCC2)CC1)N1CC(Oc2ccc(Cn3cccn3)cc2)C1 [Example 16, 1-cyclobutyl-4-({3-[4-(1H-pyrazol-1-ylmethyl)phenoxy]azetidin-1-yl}carbonyl)-1,4-diazepane]
O=C(N1CCCN(C2CCC2)CC1)N1CC(Oc2ccc(F)cc2)C1 [Example 13, 1-cyclobutyl-4-{[3-(4-fluorophenoxy)azetidin-1-yl]carbonyl}-1,4-diazepane]
